Experiment [1] has as its system normal human derived fibroblast (NHDF) and normal lung epithelial cells. Nature of the experiment: Cell death by Annexin V in normal cells. The class given is cell-based. As for the experimental part:
(§1) A: Treatment with DMM induced ROS production in both normal human derived fibroblast (NHDF) and normal lung epithelial cells (Normal lung). ROS was detected by flow cytometry using indicator CM-H2DCFDA. Data are provided for the following curves (from left to right): 0, 5 mM, 10 mM, or 20 mM DMM. […] Cell death was analyzed by Annexin V reagent. Each histogram is representative of three experiments
(§2) Apoptosis was measured by staining with the Nexin reagent using a Nexin kit and counting on the Guava PCA-96 system (Guava Technologies) as per the manufacture's protocol. Briefly, cells were harvested and re-suspended in 100 μl of 1× Nexin buffer, and then mixed with 100 μl of Annexin-V-PE, and Nexin 7-AAD. The cells were allowed to incubate for 20 minutes at room temperature and analyzed in the Guava flow cytometer.

Experiment [2] concerns A549 xenograft tumors. Briefly: A549 xenograft in nude mice treated with DMM, cisplatin or both. It is filed as in vivo, athymic nude mice. As for the experimental part: Approximately 5×10^6 control pLKO cells were subcutaneously implanted into female athymic nude mice. Mice were treated with DMM, cisplatin (CP), a combination of cisplatin with DMM (CP+DMM), or control (PBS), as described herein. Tumor size was measured and calculated. B: Direct injection of DMM into xenograft tumors caused shrinkage and ulceration of tumors, as compared to control with PBS.
Animal experiments were performed under federal guidelines and approved by the Institutional Animal Care and Use Committee (IACUC) of the Beth Israel Deaconess Medical Center (Approval number 0342007). A549 xenografts in nude mice were generated by following the description of Verrax et al., in Biochem. Pharmacol. 72: 671-680 (2006). Briefly, approximately 10^7 ME2 deficient or control A549 cells resuspended in 200 μl of a serum-free culture medium/Matrigel mixture (1:1) were subcutaneously injected into the right and left flanks of male nude/nu/nu athymic mice, respectively. Tumor-bearing mice were sacrificed after 6-8 weeks and tumor masses were measured or imaged before excision. Tumor lysates were prepared by homogenization of tumor tissues in RIPA lysis buffer and were resolved by SDS-PAGE and transferred onto PDVF membranes and immunoblotted with anti-ME2 antibody and normalized by β-tubulin as a loading control.

Experiment [3] relates to A549 cells. Briefly: Mitochondrial superoxide by MitoSOX Red in A549 cells. It is filed as cell-based, human. As for the experimental part: (§3) Intracellular ROS production was measured by staining with CM-H2DCFDA. CM-H2DCFDA is a cell-permeant indicator for ROS that is nonfluorescent until removal of the acetate groups by intracellular esterases and oxidation occurs within the cell. The procedure for measuring ROS was carried out as described in Trachootham et al., in Cancer Cell. 10: 241-252 (2006), with minor modifications. Briefly, A549 cells transduced with shRNA lentiviral particles or control vector were selected with puromycin for 2 weeks, and then incubated with 5 μM CM-H2DCF-DA for 3 hours, followed by flow cytometry using a FACSCalibur equipped with CellQuest Pro software. Superoxide radicals (O2^−) were measured separately using the MitoSOX™ reagent according to the manufacturer's protocol (Invitrogen). In brief, cells with or without ME2 knockdown were incubated with 5 μM MitoSOX™ reagent for 10 minutes at 37° C., then washed three times and observed under a fluorescence microscope using the Rhodamine filter and Axiovision software for capturing images (Zeiss, Germany).
We measured the ROS source using MitoSOX™ Red, a reagent that selectively targeted to the mitochondria.

For experiment [4], the system named is normal human derived fibroblast (NHDF) and normal lung epithelial cells. Nature of the experiment: ROS by CM-H2DCFDA in normal cells. The class given is cell-based. As to conditions: 5, 10, 20 mM DMM. As for the experimental part: as §1
as §3, with “Briefly, A549 cells transduced with shRNA lentiviral particles or control vector were selected with puromycin for 2 weeks, and then incubated with 5 μM CM-H2DCF-DA for 3 hours, followed by flow cytometry using a FACSCalibur equipped with CellQuest Pro software.” left out

Experiment [5] deals with T1, ME2-C (Homo sapiens, UniProt P23368).
T1 construct: His tag (C); FLAG tag (cleavable) (C); made in house; host or cells: E. coli BL21(DE3)
Briefly: In vitro activity of modified ME2 (ME2-C), absorbance at 340 nm. It is filed as biochemical. Conditions: 5, 15 and 45 mM DMM; 15 mM L-malate, 1 mM NAD+, 60 nM ME2-C, 37° C. On the procedure:
Modified ME2 is a recombinant ME2 protein having a C-terminus His tag and lacking the mitochondrial targeting sequence (ME2-C) was prepared, as described in Loeber et al., J. Biol. Chem. 266:3016-3021 (1991). The 200 μl assay mixture contained 30 mM of Tris-HCl (pH 7.4), 15 mM of L-malate (pH 7.4), 1 mM of NAD^+, 2 mM of MnCl2, and 60 nM of ME2-C. Different concentrations of DMM (pH 7.4) were tested, namely 5, 15 and 45 mM. The absorbance of the solution at 340 nm was monitored continuously with a Beckman Coulter DTX 880 multimode spectrophotometer at 37° C.
To further determine compounds that can be used to inhibit ME2 and/or increase intracellular malate, or a derivative thereof, an ME2 assay was established. Accordingly, a modified ME2 protein was constructed using a human ME2 expression vector and a bacterial expression system (E. coli BL21(DE3)) with a cleavable FLAG tag. Both N- and C-terminal constructs were assessed for protein production, and the mitochondrial targeting sequence was deleted in the constructs, as described in Loeber et al., J. Biol. Chem. 266:3016-3021 (1991), which is incorporated herein by reference. Kinetic experiments were performed with C-terminal tagged ME2 (ME2-C) and with an assay mixture containing 30 mM of Tris-HCl (pH 7.4), 15 mM of L-malate (pH 7.4), 1 mM of NAD+, 2 mM of MnCl2, and 60 nM of ME2-C. […]

Experiment [6] has as its system A549 cells. Briefly: Proliferation assay of A549 cells treated with DMM. It is filed as cell-based, human. On the procedure:
Control and ME2 deficient cell lines were plated in 6-well plate at a density of 1×10^5 cells/well and maintained at 37° C. in a 5% CO2 incubator. After 24, 72, 120 and 168 hours of initial plating, 0.5 ml cells were diluted into 10 ml of Hanks' buffer and counted by Coulter counter. All samples were assayed in triplicate to generate proliferation curves, as described in Benson et al., Nature 441: 451-456 (2006). For the clonogenic assay, A549 with stably expression ME2 knockdown and control shRNA cells were seeded in a 6-well plate at a density of 200 cells per well. Colonies were fixed with 10% formaldehyde for 5 min and stained with 0.5% crystal violet for 30 min and counted with NIH image software.
To test whether malate accumulation may damage mitochondrial function and further inhibit cell growth, an exogenous form of malate was delivered in vitro. Exogenous malate may mimic the phenotype-induced by ME2 knockdown. Therefore, we supplemented exogenous cell-permeable malate (Heart et al., Am. J. Physiol. 296: E1354-1362 (2009)) in A549 cell growth media and compared the phenotype with ME2 knockdown cells. DMM, being cell permeable, was used as an exogenous substitute for malate.

Experiment [7] concerns Akt and PDK1. Nature of the experiment: Western blotting of Akt/PDK1 phosphorylation and differentiation marker in A549 cells. It is filed as cell-based, human. As to conditions: for DMM-induced differentiation / basal Akt activity in DMM-treated A549 cells: DMM in combination with NAC or GSH; for basal Akt activity in DMM-treated A549 cells: p-AKT473. As for the experimental part: A549 cells with and without ME2 knockdown were lysed with RIPA buffer (50 mM Tris-HCl, pH 7.4, 150 mM NaCl, 1% NP-40, 0.1% SDS and 0.5% sodium deoxycholate), and equal amount of proteins were resolved by 4%-12% Bis-Tris gels (Invitrogen), as previously described in Ren et al., Proc. Natl Acad. Sci. USA 104: 10465-10469 (2007). Briefly, the proteins were transferred to a PVDF membrane, and membranes were blocked with BLOTTO (5% nonfat dry milk and 0.1% Tween 20 in PBS), and incubated with antisera generated against ME2, phospho-AKT380, phosphor-473, AKT1/2, phosphor-ERK1/2, ERK1, vimentin, GATA-1 or β-tubulin antibodies, respectively. Membranes were washed in PBS plus 0.1% Tween 20 and probed with anti-rabbit or anti-mouse HRP-conjugated secondary antibody (both at 1:10,000 dilution), and proteins were detected using the ECL Plus chemiluminescence detection reagent (Amersham Biosciences).
(In general: In western blotting, separated proteins are transferred to a membrane and probed.)

Experiment [8] relates to A549 cells. Nature of the experiment: Cellular ROS by CM-H2DCFDA flow cytometry in A549 cells. The class given is cell-based, human. As to conditions: for DMM-induced ROS production: 10 or 20 mM DMM with 20 mM NAC or 20 mM GSH. As for the experimental part:
as §3
(A flow cytometer gives signals particle by particle.)

The subject of experiment [9] is A549 cells. Nature of the experiment: Annexin-V apoptosis / cell death assay in A549 cells. The class given is cell-based, human. As to conditions: for DMM-induced cell death: DMM with NAC or GSH. On the procedure: as §2
For experiment [10], the system named is A549 cells. Briefly: Survival of A549 cells in Hams/F12 medium without glucose, pyruvate and glutamine. The class given is cell-based, human. Conditions: control and ME2 knockdown A549 cells, medium without pyruvate, glutamine. As for the experimental part:
A549 control or ME2 knockdown cells were grown in Hams/F12 based medium without glucose, pyruvate and glutamine. Different concentrations of glutamine were supplemented as indicated. The alive cells were stained with Nexin/7-ADD and analyzed by FACS. B: Exogenous supplementation of pyruvate can rescue ME2 depletion induced cell death. A549 control or ME2 knockdown cells were grown in Hams/F12 based medium without glucose, pyruvate and glutamine. Different concentrations of pyruvate were supplemented as indicated. The alive cells were stained with Nexin/7-ADD and analyzed by FACS. C and D: The effect of ME2 knockdown on de novo synthesis of PC is greater with ^13C6-Glc than with ^13C5, 1^5N2-Gln as tracer, as analyzed by FT-ICR-MS. E: Inhibition of ^13C3-citrate synthesis from ^13C6-Glc by ME2 knockdown, as determined by GC-MS. […] G and H: Effects of ME2 knockdown on the levels and fractional distribution of ^13C isotopologues of malate, as analyzed by GC-MS; rectangles depict ^13C2- (m2) and ^13C3-malate (m3) species as markers of the first turn of the Krebs cycle without and with pyruvate carboxylation input, respectively. […]

The mark [11] stands for this setting: direct intratumoral injection, vs PBS.

T1 sequence (P23368 19-584): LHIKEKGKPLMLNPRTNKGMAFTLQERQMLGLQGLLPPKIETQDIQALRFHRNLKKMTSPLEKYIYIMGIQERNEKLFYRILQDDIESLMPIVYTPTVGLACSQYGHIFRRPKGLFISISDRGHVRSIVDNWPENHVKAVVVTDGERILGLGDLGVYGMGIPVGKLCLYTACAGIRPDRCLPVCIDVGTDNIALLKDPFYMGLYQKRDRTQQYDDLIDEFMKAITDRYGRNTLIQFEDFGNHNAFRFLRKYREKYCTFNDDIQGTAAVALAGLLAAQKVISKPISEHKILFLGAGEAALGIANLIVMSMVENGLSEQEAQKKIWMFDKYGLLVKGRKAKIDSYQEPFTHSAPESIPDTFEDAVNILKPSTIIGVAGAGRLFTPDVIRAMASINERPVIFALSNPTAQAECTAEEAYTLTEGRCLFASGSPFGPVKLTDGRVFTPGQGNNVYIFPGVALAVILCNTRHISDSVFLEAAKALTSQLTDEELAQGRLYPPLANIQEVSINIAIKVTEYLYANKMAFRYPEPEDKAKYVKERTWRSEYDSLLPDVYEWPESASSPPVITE

For the compound `COC(=O)CC(O)C(=O)OC` (centres unmarked) [DMM, dimethyl malate], the “cell death in normal cell lines” value in [1] was “not in the normal cell lines”. Further, in experiment [2] (0.5 g/kg of DMM), the “A549 tumor growth in vivo” value is recorded as “significantly inhibited”. In addition, in experiment [2] (setting [11]), the “tumor size after direct injection into A549 xenograft tumors” value was “decreases in tumor size” and the “tumor tissue appearance after direct injection into A549 xenograft tumors” value was “ulceration of the tumor tissue”. For the same compound, the “superoxide (MitoSOX Red)” value in experiment [3] (20 mM DMM for four days) is given as “increased presence of superoxide”. Besides, the “ROS production in normal cell lines” value in experiment [4] is recorded as “enhanced ROS production”. For the same compound, the “activity of ME2-C” value in [5] is given as “decreased the activity”. Further, in [6] (10 and 20 mM DMM, control (pLKO) and ME2 knockdown (shME2-3) A549 cells), the “proliferation of A549 cells” value is given as “significantly inhibited”. For the same compound, in experiment [6] (shME2-3 vs pLKO A549 cells), the “sensitivity of ME2 knockdown cells to DMM treatment compared to control cancer cells” value is reported as “more sensitive”. Moreover, in [7] (A549 cells in vitro), the E-cadherin expression result is on record as “increased”. Besides, the “basal Akt and PDK1 activity” value in experiment [7] (A549 cells in vitro, p-AKT473 and p-PDK1) was “inhibited”. For the same compound, the “time course of DMM-induced ROS production” value in experiment [8] (3 h to 3 days) was “time-dependent”. In experiment [8] (A549 cells, exogenous DMM 5, 10, 20 mM), the “ROS production (CM-H2DCFDA)” value is recorded as “enhanced production of ROS”. For the same compound, the “mode of cell death induced by DMM (annexin V assay)” value in [9] (A549 cells) is given as “induced necrosis in A549 cells rather than apoptosis”. Besides, the “cell death in A549 cancer cell” value in experiment [9] (compared with normal cell lines) is “selectively induced cell death”.
In the case of `N[C@@H](CCC(=O)N[C@@H](CS)C(=O)NCC(=O)O)C(=O)O` [GSH, reduced glutathione], in [7], the DMM-induced differentiation result is on record as “reversed the DMM-induced differentiation” and the “basal Akt activity in DMM-treated A549 cells” value is recorded as “rescued basal Akt activity”. Further, in experiment [8], the “DMM-induced ROS production” value is “inhibited”. Besides, the DMM-induced cell death entry in experiment [9] is given as “almost completely inhibited”.
`CC(=O)N[C@@H](CS)C(=O)O` [NAC, N-acetyl-cysteine]: in [3] (DMM together with 20 mM NAC), the “superoxide production in DMM-treated cells” value is given as “decreased levels of superoxide production”. Besides, in experiment [7], the DMM-induced differentiation result is recorded as “reversed the DMM-induced differentiation” and the “basal Akt activity in DMM-treated A549 cells” value is listed as “rescued basal Akt activity”. Besides, the “DMM-induced ROS production” value in experiment [8] is on record as “inhibited”. Further, the DMM-induced cell death result in [9] is “almost completely inhibited”. Besides, in experiment [9] (ME2 depleted cells), the “cell death induced by ME2 knockdown, rescue by antioxidant” value is reported as “failed to rescue”.
For `NC(=O)CC[C@H](N)C(=O)O` [glutamine], the “rescue of cell survival by supplementation” value in [10] is on record as “rescued control cells more than ME2 knockdown cells”.
